The assay deals with PD-1/PD-L1 protein/protein interaction (Homo sapiens (Human), UniProt Q9NZQ7). Briefly: PD-1/PD-L1 Homogeneous Time-Resolved Fluorescence (HTRF) binding assay. Conditions: recombinant human PD-L1 (19-238) His-tag, human PD-1 (25-167) Fc tag; 25° C., PBS pH 7.4. Here is the method: Example A. PD-1/PD-L1 Homogeneous Time-Resolved Fluorescence (HTRF) Binding Assay
The assays were conducted in a standard black 384-well polystyrene plate with a final volume of 20 μL. Inhibitors were first serially diluted in DMSO and then added to the plate wells before the addition of other reaction components. The final concentration of DMSO in the assay was 1%. The assays were carried out at 25° C. in the PBS buffer (pH 7.4) with 0.05% Tween-20 and 0.1% BSA. Recombinant human PD-L1 protein (19-238) with a His-tag at the C-terminus was purchased from AcroBiosystems (PD1-H5229). Recombinant human PD-1 protein (25-167) with Fc tag at the C-terminus was also purchased from AcroBiosystems (PD1-H5257). PD-L1 and PD-1 proteins were diluted in the assay buffer and 10 μL was added to the plate well. Plates were centrifuged and proteins were preincubated with inhibitors for 40 minutes. The incubation was followed by the addition of 10 μL of HTRF detection buffer supplemented with Europium cryptate-labeled anti-human IgG (PerkinElmer-AD0212) specific for Fc and anti-His antibody conjugated to SureLight®-Allophycocyanin (APC, PerkinElmer-AD0059H). After centrifugation, the plate was incubated at 25° C. for 60 min. before reading on a PHERAstar FS plate reader (665 nm/620 nm ratio). Final concentrations in the assay were […], 10 nM PD-L1, 1 nM europium anti-human IgG and 20 nM anti-His-Allophycocyanin. IC50 determination was performed by fitting the curve of percent control activity versus the log of the inhibitor concentration using the GraphPad Prism 5.0 software.
(In TR-FRET formats the signal depends on donor and acceptor labels being close together.)

For orientation: IC50 means the point on the concentration scale where inhibition reaches its midpoint.

Sequence of PD-1/PD-L1 protein/protein interaction (Q9NZQ7 19-238): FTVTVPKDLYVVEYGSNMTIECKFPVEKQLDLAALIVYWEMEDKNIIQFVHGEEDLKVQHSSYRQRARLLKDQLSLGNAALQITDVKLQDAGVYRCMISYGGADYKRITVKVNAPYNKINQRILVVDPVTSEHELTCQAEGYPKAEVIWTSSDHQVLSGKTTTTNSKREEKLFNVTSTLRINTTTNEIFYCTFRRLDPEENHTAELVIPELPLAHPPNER

With `Cc1c(NC(=O)c2ccc(CNCCO)cn2)cccc1-c1cccc(-c2nc3c(Cl)cc(CNCCO)cn3n2)c1C` [Example 1, N-(3′-(8-chloro-6-((2-hydroxyethylamino)methyl)-[1,2,4]triazolo[1,5-a]pyridin-2-yl)-2,2′-dimethylbiphenyl-3-yl)-5-((2-hydroxyethylamino)methyl)picolinamide], the IC50 was not above 10 nM.
With `Cc1c(-c2nc3c(Cl)cc(CNCCO)cn3n2)cccc1-c1cccc(NC(=O)c2ccc(CNCCO)cn2)c1Cl` [Example 2, N-(2-chloro-3′-(8-chloro-6-((2-hydroxyethylamino)methyl)-[1,2,4]triazolo[1,5-a]pyridin-2-yl)-2′-methylbiphenyl-3-yl)-5-((2-hydroxyethylamino)methyl)picolinamide] the figure was not above 10 nM; with `Cc1c(-c2nc3c(C#N)cc(CNCCO)cn3n2)cccc1-c1cccc(NC(=O)c2ccc(CNCCO)cn2)c1Cl` [Example 3, N-(2-chloro-3′-(8-cyano-6-((2-hydroxyethylamino)methyl)-[1,2,4]triazolo[1,5-a]pyridin-2-yl)-2′-methylbiphenyl-3-yl)-5-((2-hydroxyethylamino)methyl)picolinamide], not above 10 nM; with `Cc1c(-c2nc3c(Cl)cc(CNCCO)cn3n2)cccc1-c1cccc(-c2nc3c(s2)CNCC3)c1C` [Example 4, 2-((8-chloro-2-(2,2′-dimethyl-3′-(4,5,6,7-tetrahydrothiazolo[5,4-c]pyridin-2-yl)biphenyl-3-yl)-[1,2,4]triazolo[1,5-a]pyridin-6-yl)methylamino)ethanol], not above 10 nM.

The values are drawn from US10793565B2, “Heterocyclic compounds as immunomodulators” (Incyte Corporation, priority 2016, dated 2020).
